Laboratory results reported in US7879792B2, “Synthetic peptide inhibitors of thrombin and thrombin activation of protease activated receptors 1 and 4” (The Regents of the University of Michigan, priority 2005, dated 2011).
Like-named read-outs stand apart in the source and are kept apart here. Where a SMILES comes first, the peptide text is derived from it.

Tests used:
human α-thrombin = human α-thrombin (Homo sapiens, UniProt P00734); assay: inhibition of α-thrombin hydrolysis of chromogenic substrate; type: biochemical; conditions: Ki (μM) + SD, αIIa (2 nM), alpha-thrombin 2 nM, Sar-Pro-Arg-paranitroanilide
[1] = stability testing in MES buffer (pH 6.5); type: physicochemical; conditions: 37° C., read-out: t1/2 (min) MES Buffer (pH 6.5)
Protocol: (§1) Stability testing of the various compounds was performed in buffer, intestinal perfusate, and an intestinal homogenate preparation to assess the potential oral availability of these compounds. Initial studies prepared the tissue for stability studies. The buffer used in stability testing is 10 mM MES (pH 6.5) containing 135 mM NaCl, and 5 mM KCl. To collect intestinal perfusate from rats, male Sprague Dawley rats, 8 to 10 weeks old, weighing 250 to 350 g were fasted 15 to 18 hours with water given ad libitum. Anesthesia was administered by intramuscular injection of pentobarbital/ketamine (40 mg/kg and 80 mg/kg, respectively). The rats were placed on a warming pad under a surgical lamp to maintain body temperature and jejunal intestinal segments were exposed through a midline, abdominal incision. Approximately 20 cm segment of the jejunum (2 to 4 cm distal to the ligament of Treitz) was cannulated and the intestinal segments were perfused with 10 mM MES (pH 6.5) containing 135 mM NaCl, and 5 mM KCl at a flow-rate of 0.5 ml/min at 37° C. using a constant infusion pump (Harvard Apparatus, South Natick, Mass.). The collected perfusate was stored at −80° C. until use for ex vivo stability studies. After collection, the perfused intestinal segments were flushed with ice-cold 0.15 M KCl solution and the animal was euthanized and the jejunal intestinal segment detached. The inner intestinal tissue layers are scraped out and homogenized in MES buffer (pH 6.5) in a ratio of 1 part of intestinal tissue to 5 parts buffer. Total protein content of the perfusate and the homogenate were determined using a Biorad protein assay kit. The intestinal homogenate samples were used immediately or rapidly frozen at −80° C. until stability analysis.
The actual stability testing protocol is as follows: A 0.1 ml aliquot of the synthetic peptide solution (1 mg/ml) was added to 0.9 ml of MES buffer, pH 6.5, intestinal perfusate, or intestinal homogenate at 37° C. Samples were mixed by vortexing and 100 microliter aliquots were removed over a 60 to 90 minute period for analysis of breakdown products. […]

[2] = stability testing in intestinal perfusate; type: in vitro ADME; conditions: rat, 37° C.
Protocol: as §1
(§2) The actual stability testing protocol is as follows: A 0.1 ml aliquot of the synthetic peptide solution (1 mg/ml) was added to 0.9 ml of MES buffer, pH 6.5, intestinal perfusate, or intestinal homogenate at 37° C. Samples were mixed by vortexing and 100 microliter aliquots were removed over a 60 to 90 minute period for analysis of breakdown products. The 100 microliter sample aliquots were diluted 10 fold with water and subjected to solid phase extraction using a Waters Oasis HLB column. Briefly, the columns were preconditioned by passing 1 ml of MeOH and 1 ml of water over the column, and 1 ml of sample was added to the column. The column was washed with 5% methanol:95% water solution to remove proteins and salts, then eluted with 1 ml of 100% methanol. The methanol was removed by vacuum, and the sample was reconstituted in mobile phase for LC/MS/MS analysis.
(§3) LC/MS/MS analysis was performed on a HP1100 HPLC (Hewlett Packard) interfaced with a Quattro II MS/MS detector (Waters/Micromass). For the HPLC separation, a 10 μL aliquot of sample in a mobile phase consisting of an equal volume mixture of acetonitrile/water containing 0.5% formic acid was injected onto a 150 mm×2.2 mm, 5 μm C8 column (Higgins Analytical Inc) and developed at a flow rate of 0.2 ml/min for 5 minutes. The MS detector was used in single ion recording mode at a cone voltage of 50 Volts.

[3] = stability testing in intestinal homogenate; type: in vitro ADME; conditions: rat
Protocol: as §1, §2, §3

[4] = rat intestinal in situ perfusion permeability; type: in vivo; conditions: rat
Protocol: To determine the intestinal permeability of the various peptide analogs, male albino Sprague-Dawley rats, 9-10 weeks old and weighing 250-350 g were fasted for 18 hours with free access to water. The rats were anesthetized with an intramuscular injection of ketamine/xylazine/butorphanol (87 mg/kg, 6 mg/kg, and 0.2 mg/kg body weight, respectively). The abdomen was opened by a 4-5 cm midline incision and a 10 cm jejunal segment was cannulated on two ends and connected to a syringe pump that pumps the perfusing solution through the cannulated intestine at a constant rate and at a temperature of 37° C. The isolated segment was rinsed with 10 mM MES (pH 6.5) at a flow-rate of 0.5 ml/min in order to clean out any residual debris. Jejunal perfusion was subsequently performed with the same buffer containing 135 mM NaCl, 5 mM KCl and 0.01% PEG 4000 at a flow rate of 0.2 ml/min containing test compound, internal permeability reference standards (e.g., metoprolol) and ^14C-PEG 4000 as a non-absorbable marker for measuring water flux. After steady-state is reached within the perfused intestinal segment, typically 30 minutes after start of perfusion, samples were taken at 10 minute intervals for 1 hour. ^14C (PEG-4000) levels are assayed by scintillation counting and test compounds and internal permeability standard analysis by LC/MS/MS. Samples are frozen and stored at −80° C. until analysis.
The effective permeability (Peff) determined from the in situ perfusion is calculated from equation 1
[formula] where Q is the perfusion buffer flow rate, C′out is the outlet concentration of the compound that has been adjusted for water transport (equation 2) after passing through the intestinal segment, C′in is the inlet or starting concentration of the compound, R is the radius of the intestinal segment (set to 0.2 cm) and L is the length of the intestinal segment. To correct for water transport, a non-absorbed radioactive tracer, ^14C PEG-4000, is included in the perfusion buffer. The Cout/Cin ratio is corrected for water transport according to equation 2:
[formula] where Aout-A0 is equal to the radioactivity counts in the outlet sample minus background (dpm) and Ain-A0 is equal to the radioactivity counts in the inlet sample minus background (dpm).
In certain instances, in addition to perfusing the intestinal segment as described, plasma is drawn through a portal vein cannula to determine the amount of material entering the portal system during the perfusion. This additional experimental step can aid in determining the true intestinal permeability of unstable compounds. After steady state conditions are reached as described above, 0.5 ml aliquots of plasma are withdrawn from the portal vein at regular intervals throughout the experimental time frame. The plasma samples are deproteinated with acetonitrile and the sample is subjected to SPE and LC/MS analysis as described above. From the plasma concentration of compound, the mesenteric permeability can be determined by substitution into equation 3: Flux=A*Pe-mes*Ci 3) where Flux is equal to the portal blood flow (estimated at 1 ml/min in the rat)×the steady state mesenteric blood concentration of the peptide analogs, A is the absorptive area of the intestine (estimated at 12.56 cm^2 in the rat intestine), Pe-mes is the mesenteric Permeability (cm/sec), and Ci is the starting concentration of drug in the perfusate (ug/ml).

Row | SMILES | Ki (human α-thrombin) [µM] | half-life at 0.1 mg/ml [1] [min] | half-life at 0.1 mg/ml ([2]; male, Sprague Dawley, intestinal (jejunal) perfusate, pH 6.5, rat, read-out: t1/2 (min) Intestinal Perfusate) [min] | half-life at 0.1 mg/ml ([3]; male, Sprague Dawley, intestinal (jejunal) homogenate, pH 6.5, 37° C., read-out: t1/2 (min) Intestinal Homogenate) [min] | stability in intestinal homogenate (FIG. 12) [3] | Papp ([4]; male, Sprague-Dawley, other: in situ jejunal perfusion, pH 6.5, from portal vein plasma during perfusion, read-out: Permeability (mesenteric)) [×10⁻⁶ cm/s] | Papp ([4]; male, Sprague-Dawley, other: in situ jejunal perfusion, pH 6.5, rat jejunal in situ perfusion, read-out: Permeability (in situ)) [×10⁻⁶ cm/s] | half-life [1] [min] | t1/2 (min) Intestinal Perfusate [2] | t1/2 (min) Intestinal Homogenate ([3]; 37° C.) | Papp ([4]; from portal vein plasma during perfusion, read-out: Permeability (mesenteric)) [×10⁻⁶ cm/s] | Papp ([4]; rat jejunal in situ perfusion, read-out: Permeability (in situ)) [×10⁻⁶ cm/s]
1 | Cc1ccc(C[C@H](NC(=O)[C@@H](C)NC(=O)[C@@H]2CCCN2C(=O)[C@@H]2C[C@@H]3CCCC[C@@H]3N2C(=O)[C@H](N)CCCN=C(N)N)C(N)=O)cc1 [rOicPaF(p-Me), D-Arg-Oic-Pro-D-Ala-Phe(p-Me)] (HELM PEPTIDE1{[dR].[O=C([C@@H]1C[C@@H]2CCCC[C@@H]2N1[*:1])[*:2]].P.[dA].[Cc1ccc(C[C@H](N[*:1])C(=O)[*:2])cc1].[am]}$$$$V2.0) | 6.4 to 10.6 | 363 | 314 | 757 | most stable | 0.309 | 1 | – | – | – | – | –
2 | C[C@@H](NC(=O)[C@@H]1CCCN1C(=O)[C@@H]1C[C@@H]2CCCC[C@@H]2N1C(=O)[C@H](N)CCCNC(=N)N)C(=O)N[C@@H](Cc1ccccc1)C(N)=O [rOicPaF] (HELM PEPTIDE1{[dR].[O=C([C@@H]1C[C@@H]2CCCC[C@@H]2N1[*:1])[*:2]].P.[dA].F.[am]}$$$$V2.0) | – | – | – | – | most stable | – | – | 604 | stable | stable | 0.139 | 6.2
